Data on 22 substances can be found in US20200283532A1, “TUMOUR-TARGETING PEPTIDE VARIANTS” (Cancer Research Technology Limited, priority 2017, published 2020).

Read-outs that look alike come from different tables or passages of the source.

Series [1] addresses T1, αvβ6 integrin (A375Pβ6 cells) (Homo sapiens, UniProt P06756+P18564).
T1 construct: expressed in transfected cells; host or cells: A375Pβ6 (transduced A375P melanoma cells; control line A375Ppuro)
Nature of the series: Level of binding of biotinylated peptides to A375Pβ6 cells by flow cytometry. The following applies: mean of up to four experiments; for A) Affinity: mean activity relative to biotinylated A20FMDV2 (100 nM): binding to A375Pβ6 at 100 nM, flow cytometry, commercial biotinylated A20FMDV2 = 1.00. In general terms: Flow cytometry measures light scatter and fluorescence of single cells or particles in a stream.

Another series relates to A375Pβ6 cells. It is filed as cell-based. As to the method: Cells were trypsinised and resuspended into DMEM (serum-free media) to prepare a cell suspension of 4×10^6 cells/ml. From this point on everything was kept on ice. 50 μl of cell suspension were aliquoted into each flow tube. Peptides were diluted in ice-cold serum-free media to 200 nM giving the final concentration of 100 nM when 50 μl was added to the cell samples. The peptides were left on ice for 15 minutes then washed twice with flow media and centrifuged for 3 minutes at 1200 rpm in between each wash step. Mouse anti-biotin (50 μl at 1:200) was added to each sample for 15 minutes, then wash steps were repeated. Apart from the 0 time point, each of the time point samples were put in the incubator at 37° C. and at 15, 30 and 45 minutes the cells were fixed in 4% formaldehyde in PBS for 10 minutes, washed once in PBS and 0.1% Triton X-100 detergent added for 5 minutes, before washing in PBS again. Goat anti-mouse IgG conjugated to AlexaFLUOR 488 (1:250) was added (50 μl) to each sample and left for 15 minutes on ice in the dark. Samples were washed as above and resuspended to 30 μl. Samples were examined on an Imagestream X Mark II (Amnis, Merck) Imagestream images were assessed for internalisation compared with the 0 minute samples using on board software.
Internalisation Assay Method—Flow Cytometry
Cells were prepared as above except that no detergent was added prior to detecting the biotin with antibodies. Samples were analysed on a FACScalibur (Bekton-Dickinson) cytometer.
To assess ability to be internalized by cells at 37° C. (and thus potential vectors for therapies) we used Imagestream® cytometry and flow cytometry. Imagestream® takes a fluorescence image of each cell (FIG. 2C) enabling image analysis of the fluorescence on the surface versus the intracellular compartment. Histograms in FIG. 2C plot internalization relative to the 0 minute time point. For flow cytometry we monitored the loss of surface expression as the peptides were internalized.

For series [2], the system named is A375Pβ6 (αvβ6) and A375Puro (control) xenografts. The series can be described thus: Biodistribution of 111In-DTPA labelled peptides in tumour-bearing mice. It is filed as in vivo, female CD1 Nu/Nu mice. The following applies: 111In-DTPA peptide iv, mean ± SEM. As for the experimental part: 2×10^6 cells in 100 μl were injected subcutaneously into the shoulders of female CD1 Nu/Nu mice. Tumours were grown subcutaneously on the left (A375Puro) and on the right (A375136) shoulder over two weeks. Once tumours had grown to approximately 5 mm diameter peptides were radiolabelled with Indium-111, and analysed by Radio-HPLC to determine labelling efficiency. The labelled peptides were diluted in sterile PBS/BSA and were dosed to give 0.3MBq per animal. Mice were then intravenously (tail-vein) injected with the radiolabelled peptide and are culled after 1 hour. Blood, organs and tumours were removed, weighed and residual activity was measured on a gamma counter (LKB Compugamma) the next day. Data were expressed as % Injected Dose/g tissue (% ID/g).
Immunocompromised mice (n=3-5) bearing A375Ppuro and A37546 tumours on opposite shoulders were given intravenous (iv) injections of […] of radiolabelled peptides 22-26 then killed 1 h later. Major organs and blood were collected immediately, weighed, and radioactivity determined. The data in Table 3 show the behaviour of the five DTPA-conjugated peptides tested; data are expressed as mean % injected dose/g tissue.

T1 sequence (P06756 31-889 limits assumed, stated change not applied): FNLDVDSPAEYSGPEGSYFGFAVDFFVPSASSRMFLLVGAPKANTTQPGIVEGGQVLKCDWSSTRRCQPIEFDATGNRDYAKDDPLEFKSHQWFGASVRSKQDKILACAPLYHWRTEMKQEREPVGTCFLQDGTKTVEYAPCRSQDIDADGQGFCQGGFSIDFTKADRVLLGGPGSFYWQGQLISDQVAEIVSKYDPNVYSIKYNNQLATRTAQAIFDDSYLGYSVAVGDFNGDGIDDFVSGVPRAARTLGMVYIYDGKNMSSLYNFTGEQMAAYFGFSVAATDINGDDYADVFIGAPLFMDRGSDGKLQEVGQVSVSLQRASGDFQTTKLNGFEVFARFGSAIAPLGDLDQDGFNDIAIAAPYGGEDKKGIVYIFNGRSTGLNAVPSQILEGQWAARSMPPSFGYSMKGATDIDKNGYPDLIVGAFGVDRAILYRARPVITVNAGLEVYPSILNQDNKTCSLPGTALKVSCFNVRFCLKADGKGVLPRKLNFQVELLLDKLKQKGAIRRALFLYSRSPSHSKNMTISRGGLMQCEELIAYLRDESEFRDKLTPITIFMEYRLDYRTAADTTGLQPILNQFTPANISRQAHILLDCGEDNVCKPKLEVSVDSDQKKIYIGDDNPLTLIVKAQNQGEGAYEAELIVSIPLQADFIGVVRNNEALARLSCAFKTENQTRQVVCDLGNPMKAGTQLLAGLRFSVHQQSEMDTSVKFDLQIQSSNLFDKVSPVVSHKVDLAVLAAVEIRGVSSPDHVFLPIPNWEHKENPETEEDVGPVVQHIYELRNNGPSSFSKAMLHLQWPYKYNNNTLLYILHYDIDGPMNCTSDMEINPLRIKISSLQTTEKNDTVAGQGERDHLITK
T1 sequence (P06756 891-1048 limits assumed, stated change not applied): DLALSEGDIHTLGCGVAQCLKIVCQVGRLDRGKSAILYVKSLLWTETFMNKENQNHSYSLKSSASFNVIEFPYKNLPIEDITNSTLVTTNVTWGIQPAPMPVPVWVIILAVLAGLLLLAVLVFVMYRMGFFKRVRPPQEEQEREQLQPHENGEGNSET
T1 sequence (P18564 22-788, stated change not applied): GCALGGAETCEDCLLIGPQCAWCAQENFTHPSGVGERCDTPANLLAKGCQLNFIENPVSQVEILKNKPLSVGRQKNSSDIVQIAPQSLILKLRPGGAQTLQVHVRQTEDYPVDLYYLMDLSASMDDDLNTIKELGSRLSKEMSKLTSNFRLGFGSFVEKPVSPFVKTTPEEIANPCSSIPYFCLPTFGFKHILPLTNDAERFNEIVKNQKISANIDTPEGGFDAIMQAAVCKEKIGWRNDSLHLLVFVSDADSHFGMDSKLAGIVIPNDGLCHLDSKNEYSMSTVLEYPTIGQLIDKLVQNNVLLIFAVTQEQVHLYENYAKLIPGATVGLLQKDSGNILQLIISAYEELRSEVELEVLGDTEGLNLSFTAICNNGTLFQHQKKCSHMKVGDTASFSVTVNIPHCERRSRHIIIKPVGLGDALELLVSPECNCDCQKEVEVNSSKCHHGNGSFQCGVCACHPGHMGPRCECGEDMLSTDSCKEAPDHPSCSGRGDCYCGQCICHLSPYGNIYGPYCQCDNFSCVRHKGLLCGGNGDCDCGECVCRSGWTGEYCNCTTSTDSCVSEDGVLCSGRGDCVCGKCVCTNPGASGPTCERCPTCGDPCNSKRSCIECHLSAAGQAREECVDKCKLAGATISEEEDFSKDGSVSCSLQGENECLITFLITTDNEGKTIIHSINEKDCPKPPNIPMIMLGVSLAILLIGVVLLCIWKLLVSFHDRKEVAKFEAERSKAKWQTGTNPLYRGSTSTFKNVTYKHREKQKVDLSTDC

On to “H2N-NK(Biotin)VPNLRGDLQVLAQKVARt-OH [Peptide 20]”, for which the “A) Affinity: mean activity relative to biotinylated A20FMDV2 (100 nM)” value in series [1] stood at 0.53 ± 0.44. In addition, in the series on A375Pβ6 cells, the “B) Internalisation: mean % internalisation at 45 min relative to biotinylated A20FMDV2 (100 nM)” value was determined as 0.99 ± 0.25 and the “Relative Activity (A × B)” value was 0.53.
On the same counts, the results for “H2N-NK(Biotin)VPNLRGDLQV[cyclohexylalanine]AQKVART-OH [Peptide 14]” are 0.62 ± 0.06, 1.01 ± 0.32 and 0.62.
For the substance “H2N-NK(Biotin)VPNLRGDLQV[homoleucine]AQKVART-OH [Peptide 12]”, the “A) Affinity: mean activity relative to biotinylated A20FMDV2 (100 nM)” value in series [1] is 0.45 ± 0.22. Moreover, in the series with A375Pβ6 cells, the “B) Internalisation: mean % internalisation at 45 min relative to biotinylated A20FMDV2 (100 nM)” value was found to be 0.66 ± 0.14 and the “Relative Activity (A × B)” value was determined as 0.27.
On the same counts, the results for “H2N-NK (Biotin) VPNLRGDLQV[norvaline]AQKVART-OH [Peptide 8]” are 0.77 ± 0.52, 1.09 ± 0.17 and 0.84.
“AcHN-NK(Biotin)VPNLRGDLQVLAQKVART-OH [Peptide 16]”: in the series with A375Pβ6 cells, the “B) Internalisation: mean % internalisation at 45 min relative to biotinylated A20FMDV2 (100 nM)” value turned out to be 1.05 ± 0.24, the “Relative Activity (A × B)” value is 1.55 and the “Relative Activity value higher than the control peptide” value worked out at 55%.
In the case of “H2N-NK(Biotin)VPNLRGDLQVLAQ-N-MeKVART-OH [Peptide 6]”, the “A) Affinity: mean activity relative to biotinylated A20FMDV2 (100 nM)” value in series [1] stood at 0.37 ± 0.12. In the series on A375Pβ6 cells, the “B) Internalisation: mean % internalisation at 45 min relative to biotinylated A20FMDV2 (100 nM)” value was found to be 0.89 ± 0.32 and the “Relative Activity (A × B)” value is 0.32.
On the same counts, the results for “H2N-NK(Biotin)VPNLRGDLQVLAQKVART-OH [Peptide 1]” are 1.11 ± 0.15, 0.84 ± 0.14 and 0.93.
In the case of “DTPA-GNK(Biotin)VPNLRGDLQVLAQKVART-OH [Peptide 23]”, in series [2] (1 h), the “Bio-distribution, Blood” value amounted to 0.5 ± 0.16 % ID/g; the “Bio-distribution, Heart” value was determined as 0.6 ± 0.16 % ID/g; the “Bio-distribution, Intestines” value amounted to 3.8 ± 0.98 % ID/g; the “Bio-distribution, Liver” value was 0.4 ± 0.06 % ID/g. For the same substance, in series [2] (1 h), the “Bio-distribution, Lung” value was found to be 4.4 ± 0.72 % ID/g; the “Bio-distribution, Muscle” value turned out to be 0.8 ± 0.07 % ID/g; the “Bio-distribution, Pancreas” value is 0.5 ± 0.13 % ID/g; the “Bio-distribution, Spleen” value worked out at 0.2 ± 0.07 % ID/g. For the same substance, in series [2] (1 h), the “Bio-distribution, Stomach” value came to 6.4 ± 2.33 % ID/g and the “Bio-distribution, Tail” value was found to be 4.3 ± 2.85 % ID/g. The “Bio-distribution, Tumour (Control)” value in series [2] (A375Puro xenograft, mice culled after 1 h) was determined as 0.5 ± 0.15 % ID/g. For the same substance, the “Bio-distribution, Tumour (αvβ6)” value in series [2] (A375Pβ6 xenograft, mice culled after 1 h) was determined as 3.7 ± 0.29 % ID/g. For the same substance, the “A) Affinity: mean activity relative to biotinylated A20FMDV2 (100 nM)” value in series [1] is listed as 1.28 ± 0.23. Further, the “Relative Activity (A × B)” value in the series with A375Pβ6 cells (binding affinity value multiplied by amount internalized, commercial biotinylated A20FMDV2 = 1.00) was 1.24. In addition, in the series on A375Pβ6 cells (flow cytometry, 100 nM, 45 min at 37° C., commercial biotinylated A20FMDV2 = 1.00), the “B) Internalisation: mean % internalisation at 45 min relative to biotinylated A20FMDV2 (100 nM)” value turned out to be 0.97 ± 0.11.
Take “H2N-NK(Biotin)VPNLRGDLQV[adamantylglycine]AQKVART-OH [Peptide 15]”: in series [1], the “A) Affinity: mean activity relative to biotinylated A20FMDV2 (100 nM)” value is listed as 0.51 ± 0.28. In the series on A375Pβ6 cells, the “B) Internalisation: mean % internalisation at 45 min relative to biotinylated A20FMDV2 (100 nM)” value was 1.07 ± 0.18 and the “Relative Activity (A × B)” value turned out to be 0.55.
The like results for “H2N-NK (Biotin) VPNLRGDLQV[tert-butyl-alanine]AQKVART-OH [Peptide 11]” were, in that order, 0.60 ± 0.23, 1.03 ± 0.14 and 0.62.
In the case of “H2N-NK(Biotin)VPNLRGDLQVLAQ[diaminopropionic acid]VART-OH [Peptide 5]”, the “A) Affinity: mean activity relative to biotinylated A20FMDV2 (100 nM)” value in series [1] is given as 0.79 ± 0.14. For the same substance, in the series with A375Pβ6 cells, the “B) Internalisation: mean % internalisation at 45 min relative to biotinylated A20FMDV2 (100 nM)” value amounted to 0.96 ± 0.31 and the “Relative Activity (A × B)” value worked out at 0.76.
Turning to “H2N-NK(Biotin)VPNLRGDLQV[2-amino-3-ethylpentanoic acid]AQKVART-OH [Peptide 13]”, the “A) Affinity: mean activity relative to biotinylated A20FMDV2 (100 nM)” value in series [1] came out at 0.70 ± 0.33. In addition, in the series with A375Pβ6 cells, the “B) Internalisation: mean % internalisation at 45 min relative to biotinylated A20FMDV2 (100 nM)” value turned out to be 0.52 ± 0.23 and the “Relative Activity (A × B)” value came out at 0.37.
On the same counts, the results for “H2N-NK(Biotin)VPNLRGDLQV[norleucine]AQKVART-OH [Peptide 9]” are 1.16 ± 0.29, 1.15 ± 0.04 and 1.33.
As for “H2N-NK(Biotin)VPNLRGDLQVLAQKVART-NH2 [Peptide 17]”, in the series on A375Pβ6 cells, the “B) Internalisation: mean % internalisation at 45 min relative to biotinylated A20FMDV2 (100 nM)” value came to 1.07 ± 0.40, the “Relative Activity (A × B)” value was determined as 1.31 and the “Relative Activity value higher than the control peptide” value turned out to be 31%.
On to “N-NK(Biotin)VPNLRGDLQVLAQ[diaminobutyric acid]VART-OH [Peptide 4]”, for which the “A) Affinity: mean activity relative to biotinylated A20FMDV2 (100 nM)” value in series [1] was found to be 1.00 ± 0.07. Besides, in the series with A375Pβ6 cells, the “B) Internalisation: mean % internalisation at 45 min relative to biotinylated A20FMDV2 (100 nM)” value turned out to be 0.86 ± 0.29 and the “Relative Activity (A × B)” value is recorded as 0.86.
On the same counts, the results for “H2N-NK(Biotin)VPNLRGDLQVLAQkVART-OH [Peptide 2]” are 1.11 ± 0.15, 0.78 ± 0.15 and 0.87.
For the substance “AcHN-NK(Biotin)VPNLRGDLQVLAQKVART-NH2 [Peptide 18]”, the “A) Affinity: mean activity relative to biotinylated A20FMDV2 (100 nM)” value in series [1] stood at 1.25 ± 0.26. For the same substance, in the series on A375Pβ6 cells, the “B) Internalisation: mean % internalisation at 45 min relative to biotinylated A20FMDV2 (100 nM)” value was 0.87 ± 0.12, the “Relative Activity (A × B)” value is recorded as 1.09 and the “Relative Activity value higher than the control peptide” value is listed as 9%.
Turning to “H2N-nK(Biotin)VPNLRGDLQVLAQKVARt-OH [Peptide 21]”, in the series on A375Pβ6 cells, the “B) Internalisation: mean % internalisation at 45 min relative to biotinylated A20FMDV2 (100 nM)” value turned out to be 0.87 ± 0.27 and the “Relative Activity value higher than the control peptide” value came to 37%.
“H2N-nK(Biotin)VPNLRGDLQVLAQKVART-OH [Peptide 19]”: the “Average binding activity higher than the parent (commercially obtained biotinylated-A20FMDV2)” value in series [1] (A375Pβ6, 100 nM) is reported as 43%. Further, in the series on A375Pβ6 cells, the “B) Internalisation: mean % internalisation at 45 min relative to biotinylated A20FMDV2 (100 nM)” value was 0.89 ± 0.12 and the “Relative Activity value higher than the control peptide” value was determined as 27%.
With “H2N-NK(Biotin)VPNLRGDLQV[aminoisobutyric acid]AQKVART-OH [Peptide 7]”, the “A) Affinity: mean activity relative to biotinylated A20FMDV2 (100 nM)” value in series [1] is 1.07 ± 0.37. In the series on A375Pβ6 cells, the “B) Internalisation: mean % internalisation at 45 min relative to biotinylated A20FMDV2 (100 nM)” value was found to be 1.11 ± 0.3 and the “Relative Activity (A × B)” value amounted to 1.19.
On the same counts, the results for “H2N-NK(Biotin)VPNLRGDLQVLAQ[ornithine]VART-OH [Peptide 3]” are 1.12 ± 0.16, 0.86 ± 0.29 and 0.96.
The like results for “H2N-NK(Biotin)VPNLRGDLQV[allylglycine]AQKVART-OH [Peptide 10]” were, in that order, 0.58 ± 0.25, 0.82 ± 0.25 and 0.48.
